Test: Pharmacokinetics in beagle dogs
Format: in vivo
Conditions: male, dog, plasma, po, intragastric 2.5 mg/kg
Experimental: 4.2 Pharmacokinetics in Beagle Dogs
3 male beagle dogs weighing 9-12 kg were intragastrically administered with the test compounds at a dosage of 2.5 mg/kg after adaptive feeding for a period of time.
The animals to be tested (male beagle dogs) were fasted for 12 h before administration and fed 4 h after administration, and water was freely drunk before, after and during the experiment.
After intragastric administration, about 0.5 mL of blood was collected from forelimb vein at 0.25 h (15 min), 0.5 h (30 min), 1 h, 1.5 h, 2 h, 4 h, 6 h, 8 h, 10 h, 24 h, 30 h, 48 h and 72 h, and placed in an EDTA-K2 anticoagulation tube. Blood samples were transferred to a centrifuge within 30 min, and centrifuged at 4000 rpm for 10 min at 4° C. to separate the plasma. All plasma samples were collected and immediately stored at −20° C. for testing.
50 μL of the plasma sample to be tested was added with 300 μL of acetonitrile solution containing an internal standard (20 ng/mL diazepam), shaken and mixed well for 5 min, and centrifuged at 13,000 rpm for 10 min. 75 μL of supernatant was taken and diluted with 75 μL of ultrapure water. After being mixed well, 1 μL of the resulting sample was taken for LC/MS/MS determination, and a chromatogram was recorded.
Oral exposure of the compounds disclosed herein was evaluated by in vivo pharmacokinetic experiments in beagle dogs.

Compound: CC1(C)CCC(CN2CCN(c3ccc(C(=O)NS(=O)(=O)c4ccc(NC[C@H]5COCCO5)c([N+](=O)[O-])c4)c(Oc4cnc5[nH]ccc5c4)c3)CC2)=C(c2ccc(C(F)(F)F)cc2Cl)C1 [Compound 8-1]
- AUC(0-inf): 27700 ± 14200 ng·h/mL
- Cmax: 1430 ± 769 ng/mL
- MRT last: 17.2 ± 1.62 h
- Tmax: 3.33 ± 1.16 h
- AUC(0-t) (read-out: AUC0-72 h): 26300 ± 13600 ng·h/mL
- half-life (read-out: T½ (converted)): 1170 ± 98.4 min
